In patent US5143911A, “Antibiotic C-3 di-hydroxyphenyl substituted cephalosporin compounds, compositions and method of use thereof” (Bristol-Myers Squibb Company, priority 1990, dated 1992):
Values after ≈ are worked out from the molar mass of the structure shown.

Experiments:
[1] = system: P. mirabilis IFO-2849; conditions: Proteus mirabilis, IFO2849, 18 h, pH 7.2
[2] = system: S. aureus IPM-24 (MRSA); conditions: Staphylococcus aureus, 18 h, pH 7.2
[3] = system: E. cloacae IPM-12; conditions: Enterobacter cloacae, IPM12, 18 h, pH 7.2
[4] = system: P. aeruginosa A20599; format: cell-based; conditions: Pseudomonas aeruginosa, pH 7.2, 32° C. 18 hr, 10^6 cells/ml
[5] = system: B. fragilis A 22053; assay: In vitro activity against anaerobes (MIC), two-fold serial agar dilution, GAM agar; format: cell-based; conditions: Bacteroides fragilis, A22053, Gn, Beta-Lactamase(-)
[6] = system: C. perfringens A9635; assay: microbe, parasite or virus in culture; format: cell-based; conditions: Clostridium perfringens
[7] = system: E. coli Juhl A15119; conditions: Escherichia coli, JUHLA15119, 18 h, pH 7.2
[8] = system: E. faecalis A9808; conditions: Enterococcus faecalis, A9808, 18 h, pH 7.2
[9] = system: B. fragilis A 22695; assay: In vitro activity against anaerobes (MIC), two-fold serial agar dilution, GAM agar; format: cell-based; conditions: Bacteroides fragilis, A22695, Gn, Beta-Lactamase(+)
[10] = system: Penicillin (PC)sensitive S. (5 strains); assay: MIC, two-fold serial agar dilution, Mueller-Hinton agar (geometric mean, group Gp-Ia); format: cell-based, S. aureus; conditions: Staphylococcus aureus
Experimental: (§1) For a primary evaluation of some representative compounds of this invention, minimum inhibitory concentrations (MIC's) were determined against 32 strains of test organisms by two-fold serial agar dilution method in Mueller-Hinton agar.
Gp-Ia: Penicillin (PC)sensitive S.

[11] = system: Ps. aeruginosa (7); assay: MIC, two-fold serial agar dilution, Mueller-Hinton agar (geometric mean, group Gn-III); format: cell-based; conditions: Pseudomonas aeruginosa, 7 strains
Experimental: as §1
GnIII: Ps. aeruginosa (7)

[12] = system: M. morganii(1), Ent. cloacae(2), and Ser. marcescens(2); assay: MIC, two-fold serial agar dilution, Mueller-Hinton agar (geometric mean, group Gn-II); format: cell-based; conditions: 5 strains
Experimental: as §1
GnII: M. morganii(1), Ent. cloacae(2), and Ser. marcescens(2)

[13] = system: B. fragilis A 22021; assay: In vitro activity against anaerobes (MIC), two-fold serial agar dilution, GAM agar; format: cell-based; conditions: Bacteroides fragilis, A22021, Gn, Beta-Lactamase(-)
[14] = system: M. morgani 1510/9; conditions: 18 h, pH 7.2
[15] = system: P. aeruginosa IPM-9; conditions: Pseudomonas aeruginosa, IPM9, 18 h, pH 7.2
[16] = system: PCresistant S. aureus; assay: MIC, two-fold serial agar dilution, Mueller-Hinton agar (geometric mean, group Gp-Ib); format: cell-based; conditions: Staphylococcus aureus, penicillin-resistant S. aureus, 5 strains
Experimental: as §1
GpIb: PCresistant S. aureus

[17] = system: Cephalothin (CET)sensitive E. coli(2), Kl. pneumoniae(1) and Pr. mirabilis(2); assay: MIC, two-fold serial agar dilution, Mueller-Hinton agar (geometric mean, group Gn-Ia); format: cell-based; conditions: 5 strains
Experimental: as §1
GnIa: Cephalothin (CET)sensitive E. coli(2)*, Kl. pneumoniae(1) and Pr.

[18] = system: P. cepacia A21213; format: cell-based; conditions: Burkholderia cepacia, pH 7.2, 32° C. 18 hr, 10^6 cells/ml
[19] = system: E. coli Juhl; conditions: Escherichia coli, in Mus musculus, im, read-out: PD50
[20] = system: P. aeruginosa IPM-8; conditions: Pseudomonas aeruginosa, IPM8, 18 h, pH 7.2
[21] = system: S. marcescens IPM-16; conditions: Serratia marcescens, IPM16, 18 h, pH 7.2
[22] = system: CETresistant E. coli(3), and Kl. pneumoniae(2); assay: MIC, two-fold serial agar dilution, Mueller-Hinton agar (geometric mean, group Gn-Ib); format: cell-based; conditions: Escherichia coli, read-out: Geometric Mean of MIC, Gn-Ib
Experimental: as §1
GnIb: CETresistant E. coli(3), and Kl. pneumoniae(2)

[23] = system: P. cepacia No. 651; conditions: Burkholderia cepacia, NO.651, 18 h, pH 7.2
[24] = system: B. subtilis PCI 219; conditions: Bacillus subtilis, PCI219, 18 h, pH 7.2
[25] = system: P. rettgeri IPM-14; conditions: Providencia rettgeri, IPM14, 18 h, pH 7.2
[26] = system: M. luteus 1001; conditions: Micrococcus luteus, 1001, 18 h, pH 7.2
[27] = system: C. terrigena IFO 12685; conditions: 18 h, pH 7.2
[28] = system: E. coli 255; conditions: Escherichia coli, 255, 18 h, pH 7.2
[29] = system: E. faecium A24817; format: cell-based; conditions: Enterococcus faecium, pH 7.2, 32° C. 18 hr, 10^6 cells/ml
[30] = system: M. morgani 1510; conditions: 18 h, pH 7.2
[31] = system: S. aureus 209P; conditions: Staphylococcus aureus, 18 h, pH 7.2
[32] = system: B. fragilis A 21916; assay: In vitro activity against anaerobes (MIC), two-fold serial agar dilution, GAM agar; format: cell-based; conditions: Bacteroides fragilis, A21916, Gn, Beta-Lactamase(-)

Question: What does the source list for CO/N=C(\C(=O)NC1C(=O)N2C(C(=O)O)=C(/C=C/COC(=O)c3ccc(O)c(O)c3)CS[C@H]12)c1csc(N)n1 (some centres unmarked) [Ia, 7-[(Z)-2-(2-Aminothiazol-4-yl)-2-methoxyiminoacetamido]-3-[(E)-3-(3,4-dihydroxybenzoyloxy)-1-propen-1-yl]-3-cephem-4-carboxylic acid]?
Answer: MIC [1]: 0.05 µg/mL (≈ 0.0869 µM); MIC [2]: > 100 µg/mL; MIC [3]: > 100 µg/mL; MIC [4]: 3.1 µg/mL (≈ 5.39 µM); MIC [5]: 0.8 µg/mL (≈ 1.39 µM); MIC [6]: 0.2 µg/mL (≈ 0.347 µM); MIC [7]: 0.05 µg/mL (≈ 0.0869 µM); MIC [8]: 100 µg/mL (≈ 174 µM); MIC [9]: 12.5 µg/mL (≈ 21.7 µM); MIC [10]: 1.2 µg/mL (≈ 2.08 µM); MIC [11]: 1.9 µg/mL (≈ 3.3 µM); MIC [12]: 0.46 µg/mL (≈ 0.799 µM); MIC [13]: 0.2 µg/mL (≈ 0.347 µM); MIC [14]: 0.05 µg/mL (≈ 0.0869 µM); MIC [15]: 6.3 µg/mL (≈ 10.9 µM); MIC [16]: 1.6 µg/mL (≈ 2.78 µM); MIC [17]: 0.017 µg/mL (≈ 0.0295 µM); MIC [18]: > 100 µg/mL; ED50 [19]: 0.05 mg/kg; MIC [20]: 6.3 µg/mL (≈ 10.9 µM); MIC [21]: > 100 µg/mL; MIC [22]: 0.029 µg/mL (≈ 0.0504 µM); MIC [23]: 12.5 µg/mL (≈ 21.7 µM); MIC [24]: 0.2 µg/mL (≈ 0.347 µM); MIC [25]: 0.05 µg/mL (≈ 0.0869 µM); MIC [26]: 0.1 µg/mL (≈ 0.174 µM); MIC [27]: 0.8 µg/mL (≈ 1.39 µM); MIC [28]: 0.2 µg/mL (≈ 0.347 µM); MIC [29]: > 100 µg/mL; MIC [30]: 3.1 µg/mL (≈ 5.39 µM); MIC [31]: 3.1 µg/mL (≈ 5.39 µM); MIC [32]: 1.6 µg/mL (≈ 2.78 µM)
